Test: Coinfusion of carboplatin and gadolinium-DTPA into pig corona radiata (T1 MRI, LA-ICP-MS)
Format: in vivo
Details: carboplatin 0.03 mg/ml coinfused with 0.3% gadolinium-DTPA, CED
Method: Carboplatin infusions were undertaken into male Large White Landrace pigs weighing 45 kg using a cannula system developed in-house. Pig anaesthesia, head immobilisation and brain imaging were achieved as we have previously described White et al (2010). Infusions of 120 μl 0.03 mg/ml carboplatin mixed with 0.3% (6 μmol/l) Gadolinium-DTPA (Magnevist: Bayer Healthcare, Germany), were undertaken bilaterally into the corona radiata using a cannula composed of a length of fused silica (outer diameter 220 μm, inner diameter 150 μm) bonded to a glass Hamilton syringe. Except for the distal 3 mm, this fused silica tube was supported along its length by a series of zirconia tubes to ensure that it could be accurately inserted to target. Infusions were performed using the following regime: 0.5 μl/min for 5 min, 1 μl/min for 5 min, 2.5 μl/min for 5 min and then 5 μl/min for 20 min. This regime was employed in an attempt to minimise the occurrence of a sudden surge in pressure at the catheter tip due to elasticity in the infusion tubing. 120 μl was infused as this is the largest volume that we have previously infused into pig white matter without leakage into the ventricular system. Following infusion completion, the cannula was left in place for 10 min prior to being withdrawn slowly by hand. CSF leakage from the burr hole and cannula track was sealed with Cerebond prior to wound closure. […]

Gadolinium-DTPA
distribution in pig corona radiata (LA-ICP-MS): distributed over a larger volume of brain than carboplatin

Source: patent US20160136284A1, “GLIOMA TREATMENT” (priority 2012, published 2016)
